Results taken from patent US20250120932A1, “PHARMACEUTICAL COMPOSITION” (NEUROPRO THERAPEUTICS, INC., priority 2021, published 2025).
Where “and” joins values, the source holds several entries; their conditions need not be identical. Equal values may be shown once.

Assay: Pharmacokinetic study in cynomolgus monkeys after oral (nasogastric) gavage, sublingual and intravenous administration
Assay type: in vivo
Conditions: monkey
Experimental: A pharmacokinetic study was done in cynomolgus monkeys following single oral (nasogastric) gavage, sublingual, and intravenous administration. […] Calibration curves, blanks, and analytical QCs were prepared in monkey plasma (K2EDTA). The extracts were evaporated to dryness, reconstituted, and then analyzed by LC-MS/MS. The calibration range was 0.250-250 ng/mL for both analytes.
If the criteria for either the calibration curve or the analytical QCs were not met, the analytical run was rejected. […] No deviations were found during the bioanalytical phase of the study conducted by Origin. Calibration curves were derived from the individual analyte to internal standard peak area ratios using the least squared regression of the ratio versus the nominal concentration of the calibration standard, prepared in duplicate. The regression was then used to back-calculate the concentration of each calibration standard, QC sample and study sample. […] Analyst® Software Version 1.6.3 (Applied Biosystems-MDS Sciex), operated with Windows® (Microsoft), was used for instrument control, data acquisition, and peak integrations. Peak area ratios, standard curve regressions, and sample concentration/accuracy values were calculated with Analyst® Software Version 1.6.3. Other results (e.g., mean statistics) were calculated with Excel® (Microsoft).
There was no apparent sex difference for the second formulation. […] A fourth formulation comprising the composition B listed in Table 54 was also administered in monheys.

CCCCNc1cc(C(=O)N(Cc2ccccc2)Cc2ccccc2)cc(S(N)(=O)=O)c1Oc1ccccc1 [Bumetanide Dibenzylamide, N, N-dibenzyl 3-aminosulfonyl-5-butylamino-4-phenoxybenzamide]
concentration at 2 h (cynomolgus monkey, plasma, other: sublingual, 5 mg/kg, Plasma Bumetanide Dibenzylamide concentration, Median, SL, dose column 5 mg/kg (title 30 mg/kg), Fourth Formulation (Form 2), 2.0 h, N=4): 0 ng/mL | concentration at 4 h (cynomolgus monkey, plasma, other: sublingual, 5 mg/kg, Plasma Bumetanide Dibenzylamide concentration, Median, SL, dose column 5 mg/kg (title 30 mg/kg), Fourth Formulation (Form 2), 4.0 h, N=4): 0 ng/mL | concentration at 8 h (cynomolgus monkey, plasma, other: sublingual, 5 mg/kg, Plasma Bumetanide Dibenzylamide concentration, Median, SL, dose column 5 mg/kg (title 30 mg/kg), Fourth Formulation (Form 2), 8.0 h, N=4): 0.505 ng/mL | concentration at 24 h (cynomolgus monkey, plasma, other: sublingual, 5 mg/kg, Plasma Bumetanide Dibenzylamide concentration, Median, SL, dose column 5 mg/kg (title 30 mg/kg), Fourth Formulation (Form 2), 24.0 h, N=4): 0.182 ng/mL | concentration at 32 h (cynomolgus monkey, plasma, other: sublingual, 5 mg/kg, Plasma Bumetanide Dibenzylamide concentration, Median, SL, dose column 5 mg/kg (title 30 mg/kg), Fourth Formulation (Form 2), 32.0 h, N=4): 0 ng/mL | concentration at 0 h (cynomolgus monkey, plasma, other: sublingual, 5 mg/kg, Plasma Bumetanide Dibenzylamide concentration, SL, dose column 5 mg/kg (title 30 mg/kg), Fourth Formulation (Form 2), 0.00 h, individual animals): 0 ng/mL | concentration at 0.25 h (cynomolgus monkey, plasma, other: sublingual, 5 mg/kg, Plasma Bumetanide Dibenzylamide concentration, SL, dose column 5 mg/kg (title 30 mg/kg), Fourth Formulation (Form 2), 0.25 h, individual animals): 0 ng/mL | concentration at 0.5 h (cynomolgus monkey, plasma, other: sublingual, 5 mg/kg, Plasma Bumetanide Dibenzylamide concentration, SL, dose column 5 mg/kg (title 30 mg/kg), Fourth Formulation (Form 2), 0.50 h, individual animals): 0 ng/mL | concentration at 1 h (cynomolgus monkey, plasma, other: sublingual, 5 mg/kg, Plasma Bumetanide Dibenzylamide concentration, SL, dose column 5 mg/kg (title 30 mg/kg), Fourth Formulation (Form 2), 1.0 h, individual animals): 0 ng/mL | concentration at 0.08 h (cynomolgus, cynomolgus monkey, plasma, intravenous, 2 mg/kg, Plasma Bumetanide Dibenzylamide concentration, Median, dose column 2 mg/kg (title 30 mg/kg), Third Formulation (Form 4), 0.08 h, N=4): 1370 ng/mL | concentration at 0.5 h (cynomolgus, cynomolgus monkey, plasma, intravenous, 2 mg/kg, Plasma Bumetanide Dibenzylamide concentration, Median, dose column 2 mg/kg (title 30 mg/kg), Third Formulation (Form 4), 0.50 h, N=4): 672 ng/mL | concentration at 1 h (cynomolgus, cynomolgus monkey, plasma, intravenous, 2 mg/kg, Plasma Bumetanide Dibenzylamide concentration, Median, dose column 2 mg/kg (title 30 mg/kg), Third Formulation (Form 4), 1.00 h, N=4): 504 ng/mL | concentration at 2 h (cynomolgus, cynomolgus monkey, plasma, intravenous, 2 mg/kg, Plasma Bumetanide Dibenzylamide concentration, Median, dose column 2 mg/kg (title 30 mg/kg), Third Formulation (Form 4), 2.00 h, N=4): 297 ng/mL | concentration at 4 h (cynomolgus, cynomolgus monkey, plasma, intravenous, 2 mg/kg, Plasma Bumetanide Dibenzylamide concentration, Median, dose column 2 mg/kg (title 30 mg/kg), Third Formulation (Form 4), 4.00 h, N=4): 109 ng/mL | concentration at 8 h (cynomolgus, cynomolgus monkey, plasma, intravenous, 2 mg/kg, Plasma Bumetanide Dibenzylamide concentration, Median, dose column 2 mg/kg (title 30 mg/kg), Third Formulation (Form 4), 8.00 h, N=4): 27.2 ng/mL | concentration at 24 h (cynomolgus, cynomolgus monkey, plasma, intravenous, 2 mg/kg, Plasma Bumetanide Dibenzylamide concentration, Median, dose column 2 mg/kg (title 30 mg/kg), Third Formulation (Form 4), 24.00 h, N=4): 2.62 ng/mL | concentration at 32 h (cynomolgus, cynomolgus monkey, plasma, intravenous, 2 mg/kg, Plasma Bumetanide Dibenzylamide concentration, Median, dose column 2 mg/kg (title 30 mg/kg), Third Formulation (Form 4), 32.00 h, N=4): 0.917 ng/mL | Plasma Bumetanide Dibenzylamide concentration (IV, dose column 2 mg/kg (title 30 mg/kg), Third Formulation (Form 4), 0.08 h, individual animals): 1430 ng/mL and 1160 ng/mL and 1310 ng/mL | Plasma Bumetanide Dibenzylamide concentration (IV, dose column 2 mg/kg (title 30 mg/kg), Third Formulation (Form 4), 0.50 h, individual animals): 757 ng/mL and 555 ng/mL and 626 ng/mL | Plasma Bumetanide Dibenzylamide concentration (IV, dose column 2 mg/kg (title 30 mg/kg), Third Formulation (Form 4), 1.00 h, individual animals): 536 ng/mL and 472 ng/mL and 385 ng/mL | Plasma Bumetanide Dibenzylamide concentration (IV, dose column 2 mg/kg (title 30 mg/kg), Third Formulation (Form 4), 2.00 h, individual animals): 316 ng/mL and 278 ng/mL and 214 ng/mL | Plasma Bumetanide Dibenzylamide concentration (IV, dose column 2 mg/kg (title 30 mg/kg), Third Formulation (Form 4), 4.00 h, individual animals): 87.8 ng/mL and 129 ng/mL and 89.3 ng/mL | Plasma Bumetanide Dibenzylamide concentration (IV, dose column 2 mg/kg (title 30 mg/kg), Third Formulation (Form 4), 8.00 h, individual animals): 51.4 ng/mL and 26.6 ng/mL and 27.7 ng/mL and 17.2 ng/mL | Plasma Bumetanide Dibenzylamide concentration (IV, dose column 2 mg/kg (title 30 mg/kg), Third Formulation (Form 4), 24.00 h, individual animals): 3.95 ng/mL and 0.942 ng/mL and 8.10 ng/mL and 1.28 ng/mL | Plasma Bumetanide Dibenzylamide concentration (IV, dose column 2 mg/kg (title 30 mg/kg), Third Formulation (Form 4), 32.00 h, individual animals): 1.47 ng/mL and 0.303 ng/mL and 3.80 ng/mL and 0.363 ng/mL | Plasma Bumetanide Dibenzylamide concentration (NG 30 mg/kg, First Formulation (Form 1), 0.00 h, individual animals, female monkeys): 0.00 ng/mL | Plasma Bumetanide Dibenzylamide concentration (NG 30 mg/kg, First Formulation (Form 1), 0.00 h, individual animals, male monkeys): 0.00 ng/mL | Plasma Bumetanide Dibenzylamide concentration (NG 30 mg/kg, First Formulation (Form 1), 0.25 h, individual animals, female monkeys): 0.992 ng/mL and 0.398 ng/mL | Plasma Bumetanide Dibenzylamide concentration (NG 30 mg/kg, First Formulation (Form 1), 0.25 h, individual animals, male monkeys): 0.932 ng/mL and 14.9 ng/mL | Plasma Bumetanide Dibenzylamide concentration (NG 30 mg/kg, First Formulation (Form 1), 0.50 h, individual animals, female monkeys): 1.66 ng/mL and 1.18 ng/mL | Plasma Bumetanide Dibenzylamide concentration (NG 30 mg/kg, First Formulation (Form 1), 0.50 h, individual animals, male monkeys): 3.97 ng/mL and 16.8 ng/mL | Plasma Bumetanide Dibenzylamide concentration (NG 30 mg/kg, First Formulation (Form 1), 1.00 h, individual animals, female monkeys): 8.08 ng/mL and 3.01 ng/mL | Plasma Bumetanide Dibenzylamide concentration (NG 30 mg/kg, First Formulation (Form 1), 1.00 h, individual animals, male monkeys): 12.1 ng/mL and 29.7 ng/mL | Plasma Bumetanide Dibenzylamide concentration (NG 30 mg/kg, First Formulation (Form 1), 2.00 h, individual animals, female monkeys): 11.1 ng/mL and 8.35 ng/mL | Plasma Bumetanide Dibenzylamide concentration (NG 30 mg/kg, First Formulation (Form 1), 2.00 h, individual animals, male monkeys): 157 ng/mL and 74.0 ng/mL | Plasma Bumetanide Dibenzylamide concentration (NG 30 mg/kg, First Formulation (Form 1), 4.00 h, individual animals, female monkeys): 9.83 ng/mL and 23.8 ng/mL | Plasma Bumetanide Dibenzylamide concentration (NG 30 mg/kg, First Formulation (Form 1), 4.00 h, individual animals, male monkeys): 182 ng/mL and 51.4 ng/mL | Plasma Bumetanide Dibenzylamide concentration (NG 30 mg/kg, First Formulation (Form 1), 8.00 h, individual animals, female monkeys): 17.5 ng/mL and 17.0 ng/mL | Plasma Bumetanide Dibenzylamide concentration (NG 30 mg/kg, First Formulation (Form 1), 8.00 h, individual animals, male monkeys): 99.9 ng/mL and 45.1 ng/mL | Plasma Bumetanide Dibenzylamide concentration (NG 30 mg/kg, First Formulation (Form 1), 24.00 h, individual animals, female monkeys): 3.28 ng/mL and 2.02 ng/mL | Plasma Bumetanide Dibenzylamide concentration (NG 30 mg/kg, First Formulation (Form 1), 24.00 h, individual animals, male monkeys): 21.6 ng/mL and 7.47 ng/mL | Plasma Bumetanide Dibenzylamide concentration (NG 30 mg/kg, First Formulation (Form 1), 32.00 h, individual animals, female monkeys): 0.790 ng/mL and 1.37 ng/mL | Plasma Bumetanide Dibenzylamide concentration (NG 30 mg/kg, First Formulation (Form 1), 32.00 h, individual animals, male monkeys): 9.75 ng/mL and 6.13 ng/mL | Plasma Bumetanide Dibenzylamide concentration (NG 30 mg/kg, Second Formulation (Form 3), 0.00 h, individual animals, female monkeys): 0.00 ng/mL | Plasma Bumetanide Dibenzylamide concentration (NG 30 mg/kg, Second Formulation (Form 3), 0.00 h, individual animals, male monkeys): 0.00 ng/mL | Plasma Bumetanide Dibenzylamide concentration (NG 30 mg/kg, Second Formulation (Form 3), 0.25 h, individual animals, female monkeys): 0.619 ng/mL and 0.261 ng/mL | Plasma Bumetanide Dibenzylamide concentration (NG 30 mg/kg, Second Formulation (Form 3), 0.25 h, individual animals, male monkeys): 0.250 ng/mL and 0.00 ng/mL | Plasma Bumetanide Dibenzylamide concentration (NG 30 mg/kg, Second Formulation (Form 3), 0.50 h, individual animals, female monkeys): 4.98 ng/mL and 1.71 ng/mL | Plasma Bumetanide Dibenzylamide concentration (NG 30 mg/kg, Second Formulation (Form 3), 0.50 h, individual animals, male monkeys): 1.55 ng/mL and 3.16 ng/mL | Plasma Bumetanide Dibenzylamide concentration (NG 30 mg/kg, Second Formulation (Form 3), 1.00 h, individual animals, female monkeys): 20.2 ng/mL and 7.09 ng/mL | Plasma Bumetanide Dibenzylamide concentration (NG 30 mg/kg, Second Formulation (Form 3), 1.00 h, individual animals, male monkeys): 7.56 ng/mL and 11.3 ng/mL | Plasma Bumetanide Dibenzylamide concentration (NG 30 mg/kg, Second Formulation (Form 3), 2.00 h, individual animals, female monkeys): 79.3 ng/mL and 37.8 ng/mL | Plasma Bumetanide Dibenzylamide concentration (NG 30 mg/kg, Second Formulation (Form 3), 2.00 h, individual animals, male monkeys): 16.8 ng/mL and 82.5 ng/mL | Plasma Bumetanide Dibenzylamide concentration (NG 30 mg/kg, Second Formulation (Form 3), 4.00 h, individual animals, female monkeys): 140 ng/mL and 247 ng/mL | Plasma Bumetanide Dibenzylamide concentration (NG 30 mg/kg, Second Formulation (Form 3), 4.00 h, individual animals, male monkeys): 126 ng/mL and 410 ng/mL | Plasma Bumetanide Dibenzylamide concentration (NG 30 mg/kg, Second Formulation (Form 3), 8.00 h, individual animals, female monkeys): 457 ng/mL and 674 ng/mL | Plasma Bumetanide Dibenzylamide concentration (NG 30 mg/kg, Second Formulation (Form 3), 8.00 h, individual animals, male monkeys): 785 ng/mL | Plasma Bumetanide Dibenzylamide concentration (NG 30 mg/kg, Second Formulation (Form 3), 24.00 h, individual animals, female monkeys): 9.30 ng/mL and 10.7 ng/mL | Plasma Bumetanide Dibenzylamide concentration (NG 30 mg/kg, Second Formulation (Form 3), 24.00 h, individual animals, male monkeys): 26.4 ng/mL and 8.13 ng/mL | Plasma Bumetanide Dibenzylamide concentration (NG 30 mg/kg, Second Formulation (Form 3), 32.00 h, individual animals, female monkeys): 1.63 ng/mL and 1.62 ng/mL | Plasma Bumetanide Dibenzylamide concentration (NG 30 mg/kg, Second Formulation (Form 3), 32.00 h, individual animals, male monkeys): 6.41 ng/mL and 2.08 ng/mL | Plasma Bumetanide Dibenzylamide concentration (SL, dose column 5 mg/kg (title 30 mg/kg), Fourth Formulation (Form 2), 4.0 h, individual animals): 0.00 ng/mL | Plasma Bumetanide Dibenzylamide concentration (SL, dose column 5 mg/kg (title 30 mg/kg), Fourth Formulation (Form 2), 8.0 h, individual animals): 0.380 ng/mL | Plasma Bumetanide Dibenzylamide concentration (SL, dose column 5 mg/kg (title 30 mg/kg), Fourth Formulation (Form 2), 24.0 h, individual animals): 0.363 ng/mL | Plasma Bumetanide Dibenzylamide concentration (SL, dose column 5 mg/kg (title 30 mg/kg), Fourth Formulation (Form 2), 32.0 h, individual animals): 0.00 ng/mL
